US20050075375A1 (priority 2003, published 2005)
Read-outs that look alike come from different tables or passages of the source.

Test system: monocistronic NK5.1 HCV replicon in Huh7 cells
Assay: HCV replicon assay, monocistronic replicon cell line
Assay type: cell-based, hepatitis C virus
Details: read-out: Mono EC50 Median
Summary of the method: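 Huh7 cells carrying the monocistronic NK5.1 replicon, seeded 24 h before dosing, were exposed to six-point half-log compound series (0.6% DMSO) for 3 days at 37 °C. Replicon RNA was quantified by TaqMan RT-PCR, normalised to GAPDH and compared with DMSO controls to derive EC50.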

[1] = Hepatitis C virus, Huh-7, 72 h, Table 1, monocistronic replicon in Huh7 cells, 3 days incubation, HCV RNA/GAPDH RNA by TaqMan RT-PCR
[2] = Hepatitis C virus, Huh-7, monocistronic NK5.1 HCV replicon in Huh7 cells, median value

Cc1cccnc1-c1noc(-c2ccc([N+](=O)[O-])cc2Cl)n1 [Compound 182, 2-[5-(2-Chloro-4-nitro-phenyl)-[1,2,4]oxadiazol-3-yl]-3-methyl-pyridine]
EC50 [1]: 12 µM

COc1ccc2ccccc2c1-c1nc(-c2ncccc2C)no1 [Compound 183]
EC50 [1]: > 32 µM

COc1cccc(-c2nc(-c3ncccc3C)no2)c1O [Compound 184, 2-Methoxy-6-[3-(3-methyl-pyridin-2-yl)-[1,2,4]oxadiazol-5-yl]-phenol]
EC50 [1]: 0.68 µM

COc1ccc(O)c(-c2nc(-c3ncccc3C)no2)c1 [Compound 185, 4-Methoxy-2-[3-(3-methyl-pyridin-2-yl)-[1,2,4]oxadiazol-5-yl]-phenol]
EC50 [1]: 1.6 µM

Cc1cccnc1-c1noc(-c2cc(Cl)ccc2O)n1 [Compound 186, 4-Chloro-2-[3-(3-methyl-pyridin-2-yl)-[1,2,4]oxadiazol-5-yl]-phenol]
EC50 [1]: 3.9 µM

Cc1cccnc1-c1noc(-c2cc(F)ccc2O)n1 [Compound 187]
EC50 (Table 1, monocistronic replicon in Huh7 cells, 3 days incubation, HCV RNA/GAPDH RNA by TaqMan RT-PCR): 6.5 µM

Cc1cccnc1-c1noc(-c2ccccc2O)n1 [Compound 188, 2-[3-(3-Methyl-pyridin-2-yl)-[1,2,4]oxadiazol-5-yl]-phenol]
EC50 [1]: > 32 µM

Cc1cccnc1-c1noc(-c2c(O)ccc3ccccc23)n1 [Compound 189, 1-[3-(3-Methyl-pyridin-2-yl)-[1,2,4]oxadiazol-5-yl]-naphthalen-2-ol]
EC50 [1]: 1.2 µM

Cc1cccnc1-c1noc(-c2cc(Br)ccc2O)n1 [Compound 190, 4-Bromo-2-[3-(3-methyl-pyridin-2-yl)-[1,2,4]oxadiazol-5-yl]-phenol]
EC50 [1]: 0.69 µM

Cc1cccnc1-c1noc(-c2cc([N+](=O)[O-])ccc2Cl)n1 [Compound 191, 2-[5-(2-Chloro-5-nitro-phenyl)-[1,2,4]oxadiazol-3-yl]-3-methyl-pyridine]
EC50 [1]: 2 µM

Cc1ccc(O)c(-c2nc(-c3ncccc3C)no2)c1 [Compound 192, 4-Methyl-2-[3-(3-methyl-pyridin-2-yl)-[1,2,4]oxadiazol-5-yl]-phenol]
EC50 [1]: > 32 µM

COc1ccc(OC)c(-c2nc(-c3nccc4ccccc34)no2)c1 [Compound 193, 1-[5-(2,5-Dimethoxy-phenyl)-[1,2,4]oxadiazol-3-yl]-isoquinoline]
EC50 [1]: 1.3 µM

Cc1ccc(O)c(-c2nc(-c3nccc4ccccc34)no2)c1 [Compound 194, 2-(3-Isoquinolin-1-yl-[1,2,4]oxadiazol-5-yl)-4-methyl-phenol]
EC50 [1]: > 10 µM

O=[N+]([O-])c1ccc(O)c(-c2nc(-c3nccc4ccccc34)no2)c1 [Compound 195, 2-(3-Isoquinolin-1-yl-[1,2,4]oxadiazol-5-yl)-4-nitro-phenol]
EC50 [1]: > 32 µM

Oc1ccc(O)c(-c2nc(-c3nccc4ccccc34)no2)c1 [Compound 196, 2-(3-Isoquinolin-1-yl-[1,2,4]oxadiazol-5-yl)-benzene-1,4-diol]
EC50 [1]: > 32 µM

COc1cccc(-c2nc(-c3nccc4ccccc34)no2)c1 [Compound 197, 1-[5-(3-Methoxy-phenyl)-[1,2,4]oxadiazol-3-yl]-isoquinoline]
EC50 [1]: > 32 µM

Oc1ccc(Cl)cc1-c1nc(-c2nccc3ccccc23)no1 [Compound 198, 4-Chloro-2-(3-isoquinolin-1-yl-[1,2,4]oxadiazol-5-yl)-phenol]
EC50 [1]: > 32 µM

Oc1ccc(F)cc1-c1nc(-c2nccc3ccccc23)no1 [Compound 199, 4-Fluoro-2-(3-isoquinolin-1-yl-[1,2,4]oxadiazol-5-yl)-phenol]
EC50 [1]: 1.1 µM

c1ccc2c(-c3nc(-c4nccc5ccccc45)no3)cccc2c1 [Compound 200, 1-(5-Naphthalen-1-yl-[1,2,4]oxadiazol-3-yl)-isoquinoline]
EC50 [1]: > 32 µM

CN(C)c1ccc(-c2nc(-c3nccc4ccccc34)no2)c(O)c1 [Compound 201, 5-Dimethylamino-2-(3-isoquinolin-1-yl-[1,2,4]oxadiazol-5-yl)-phenol]
EC50 [1]: > 32 µM

COc1ccc(O)c(-c2nc(-c3nccc4ccccc34)no2)c1 [Compound 202, 2-(3-Isoquinolin-1-yl-[1,2,4]oxadiazol-5-yl)-4-methoxy-phenol]
EC50 [1]: 1.9 µM

COc1ccc2ccccc2c1-c1nc(-c2nccc3ccccc23)no1 [Compound 203, 1-[5-(2-Methoxy-naphthalen-1-yl)-[1,2,4]oxadiazol-3-yl]-isoquinoline]
EC50 [1]: 23 µM

Oc1ccc(Br)cc1-c1nc(-c2nccc3ccccc23)no1 [Compound 204]
EC50 [1]: 1.6 µM

COc1ccc(-c2nc(-c3nccc4ccccc34)no2)c(O)c1 [Compound 205, 2-(3-Isoquinolin-1-yl-[1,2,4]oxadiazol-5-yl)-5-methoxy-phenol]
EC50 [1]: 1 µM

Oc1ccccc1-c1nc(-c2nccc3ccccc23)no1 [Compound 206]
EC50 [1]: 1.4 µM

COc1cccc(-c2nc(-c3ncccc3C(F)(F)F)no2)c1O [Compound 207, 2-Methoxy-6-[3-(3-trifluoromethyl-pyridin-2-yl)-[1,2,4]oxadiazol-5-yl]-phenol]
EC50 [1]: 17 µM

COc1ccc(O)c(-c2nc(-c3ncccc3C(F)(F)F)no2)c1 [Compound 208, 4-Methoxy-2-[3-(3-trifluoromethyl-pyridin-2-yl)-[1,2,4]oxadiazol-5-yl]-phenol]
EC50 [1]: 3.5 µM

COc1cccc(-c2nc(-c3nccc4ccccc34)no2)c1O [Compound 209, 2-(3-Isoquinolin-1-yl-[1,2,4]oxadiazol-5-yl)-6-methoxy-phenol]
EC50 [1]: 7.4 µM

Oc1ccc2ccccc2c1-c1nc(-c2nccc3ccccc23)no1 [Compound 210, 1-(3-Isoquinolin-1-yl-[1,2,4]oxadiazol-5-yl)-naphthalen-2-ol]
EC50 [1]: 2.4 µM

COc1ccc(-c2nc(-c3ncccc3C(F)(F)F)no2)c(O)c1 [Compound 211, 5-Methoxy-2-[3-(3-trifluoromethyl-pyridin-2-yl)-[1,2,4]oxadiazol-5-yl]-phenol]
EC50 [1]: 11 µM | EC50 [2]: 11 µM

O=[N+]([O-])c1ccc(-c2nc(-c3nccc4ccccc34)no2)c(Cl)c1 [Compound 212]
EC50 [1]: > 32 µM | EC50 [2]: > 32 µM

Oc1ccc(Br)cc1-c1nc(-c2ccc(C(F)(F)F)cn2)no1 [Compound 213]
EC50 [1]: 25 µM | EC50 [2]: 25 µM

COc1ccc(OC)c(-c2nc(-c3ccc(C(F)(F)F)cn3)no2)c1 [Compound 214, 2-[5-(2,5-Dimethoxy-phenyl)-[1,2,4]oxadiazol-3-yl]-5-trifluoromethyl-pyridine]
EC50 [1]: 18 µM | EC50 [2]: 18 µM

O=[N+]([O-])c1cccc(-c2nc(-c3ccc(C(F)(F)F)cn3)no2)c1 [Compound 215, 2-[5-(3-Nitro-phenyl)-[11,2,4]oxadiazol-3-yl]-5-trifluoromethyl-pyridine]
EC50 [1]: 31 µM | EC50 [2]: 31 µM

Oc1ccc(O)c(-c2nc(-c3ccc(C(F)(F)F)cn3)no2)c1 [Compound 217, 2-[3-(5-Trifluoromethyl-pyridin-2-yl)-[1,2,4]oxadiazol-5-yl]-benzene-1,4-diol]
EC50 [1]: 2.1 µM | EC50 [2]: 2.1 µM

Oc1ccc(Cl)cc1-c1nc(-c2ccc(C(F)(F)F)cn2)no1 [Compound 218, 4-Chloro-2-[3-(5-trifluoromethyl-pyridin-2-yl)-[1,2,4]oxadiazol-5-yl]-phenol]
EC50 [1]: 18 µM | EC50 [2]: 18 µM

Oc1ccc(F)cc1-c1nc(-c2ccc(C(F)(F)F)cn2)no1 [Compound 219, 4-Fluoro-2-[3-(5-trifluoromethyl-pyridin-2-yl)-[1,2,4]oxadiazol-5-yl]-phenol]
EC50 [1]: > 32 µM | EC50 [2]: > 32 µM

COc1cccc(-c2nc(-c3ccc(C(F)(F)F)cn3)no2)c1 [Compound 220, 2-[5-(3-Methoxy-phenyl)-[1,2,4]oxadiazol-3-yl]-5-trifluoromethyl-pyridine]
EC50 [1]: > 32 µM | EC50 [2]: > 32 µM

Oc1ccc2ccccc2c1-c1nc(-c2ccc(C(F)(F)F)cn2)no1 [Compound 221, 1-[3-(5-Trifluoromethyl-pyridin-2-yl)-[1,2,4]oxadiazol-5-yl]-naphthalen-2-ol]
EC50 [1]: 4.8 µM | EC50 [2]: 4.8 µM

COc1ccc(-c2nc(-c3ccc(C(F)(F)F)cn3)no2)c(O)c1 [Compound 222, 5-Methoxy-2-[3-(5-trifluoromethyl-pyridin-2-yl)-[1,2,4]oxadiazol-5-yl]-phenol]
EC50 [1]: > 32 µM | EC50 [2]: > 32 µM

Oc1ccccc1-c1nc(-c2ccc(C(F)(F)F)cn2)no1 [Compound 223]
EC50 [1]: 19 µM | EC50 [2]: 19 µM

COc1ccc(O)c(-c2nc(-c3ccc(C(F)(F)F)cn3)no2)c1 [Compound 224, 4-Methoxy-2-[3-(5-trifluoromethyl-pyridin-2-yl)-[1,2,4]oxadiazol-5-yl]-phenol]
EC50 [1]: 3.2 µM | EC50 [2]: 3.2 µM

Cc1ccc(O)c(-c2nc(-c3ccc(C(F)(F)F)cn3)no2)c1 [Compound 225, 4-Methyl-2-[3-(5-trifluoromethyl-pyridin-2-yl)-[1,2,4]oxadiazol-5-yl]-phenol]
EC50 [1]: 7.5 µM | EC50 [2]: 7.5 µM

O=[N+]([O-])c1ccc(Cl)c(-c2nc(-c3ccc(C(F)(F)F)cn3)no2)c1 [Compound 226, 2-[5-(2-Chloro-5-nitro-phenyl)-[1,2,4]oxadiazol-3-yl]-5-trifluoromethyl-pyridine]
EC50 [1]: 4.3 µM | EC50 [2]: 4.3 µM

FC(F)(F)c1ccc(-c2noc(-c3cccc4ccccc34)n2)nc1 [Compound 227, 2-(5-Naphthalen-1-yl-[1,2,4]oxadiazol-3-yl)-5-trifluoromethyl-pyridine]
EC50 [1]: > 32 µM | EC50 [2]: > 32 µM

Oc1ccc(Br)cc1-c1nc(-c2ncccc2-c2ccccc2)no1 [Compound 228, 4-Bromo-2-[3-(3-phenyl-pyridin-2-yl)-[1,2,4]oxadiazol-5-yl]-phenol]
EC50 [1]: 2.2 µM | EC50 [2]: 2.2 µM
